Reference: patent US20230201221A1, “USE OF TERPENOIDS IN THE TREATMENT OR PREVENTION OF FIBROTIC DISEASES” (ARJIL BIOTECH HOLDING COMPANY LIMITED, priority 2020, published 2023)

Experiments:
Format in all cases: in vivo
ICR mice = experiment: Bleomycin-induced pulmonary fibrosis in mice: lung hydroxyproline content; details: extract 1.0 g/kg; AH, BH, DH 50 mg/kg; p<0.001
Protocol: (§1) Mice were divided into fifth groups with 5 animals per group according to body weight: control group, BLM group, BLM+DEX group (7.5 mg/kg), BLM+ACH dosage group (50 mg/kg), and BLM+ACM dosage group (25 mg/kg), BLM+ACH dosage group (50 mg/kg), and BLM+ACM dosage group (25 mg/kg) BLM+AH dosage group (50 mg/kg), and BLM+AM dosage group (25 mg/kg) BLM+BH dosage group (50 mg/kg), and BLM+BM dosage group (25 mg/kg) BLM+CH dosage group (50 mg/kg), and BLM+CM dosage group (25 mg/kg) BLM+DH dosage group (50 mg/kg), and BLM+DM dosage group (25 mg/kg) BLM+EH dosage group (50 mg/kg), and BLM+EM dosage group (25 mg/kg) BLM. Pulmonary fibrosis (PF) was established in mice via a single intratracheal administration of BLM at 7.5 mg/kg mg/kg body weight. Different doses of samples were intragastrically administered daily for 21 days after BLM injury, and DEX was used as the positive control. Control and model groups received an equal volume of vehicle (0.9% NaCl) using the same schedule and route of administration.
The contents of hydroxyproline were analyzed in lung tissue following the instruction of hydroxyproline assay kit (Biosource International Inc., Sunnyvale, Calif., USA). The pulmonary tissues of mice were ground and homogenized with 1 ml of 6 mol/L […] solution, hydrolyzed at 95° C. for 5 hours, and the pH value was adjusted to 6.0-6.8. According to the instructions, the corresponding reagents were added to the reaction system and mixed thoroughly and then incubated for 15 minutes at 60° C. After cooling, the supernatants were collected after centrifuging at 3500 rpm for 10 minutes. The absorbance value of the supernatant from the samples was measured at 550 nm by a spectrophotometer and calculated for the contents of hydroxyproline on each group.

[1] = tested on: TNF-α, IL-1β, IL-6 and TGF-β; experiment: Cisplatin-induced renal injury in mice: serum pro-inflammatory cytokines by ELISA; details: extract at 1000 mg/kg; after cisplatin challenge
Protocol: TNF-α, IL-6, and IL-1β cytokines in serum The serum concentration of the pro-inflammatory cytokines (i.e. tumor necrosis factor-α (TNF-α), interleukin-6 (IL-6), and IL-1β) in serum are assessed with relevant enzyme-linked immunosorbent assay (ELISA) kits (Biosource International Inc., Sunnyvale, Calif., USA), based on the manufacturer's instructions.
(§2) Seven-to-eight-week-old male C57BL/6 mice are obtained from the BioLASCO Taiwan Co., Ltd. (Taipei, Taiwan). The animals are housed in Plexiglas cages at a constant temperature of 22±1° C. and a relative humidity of 55±5% on a 12 h dark-light cycle for at least 2 weeks before the experiment. Animals are provided food and water ad libitum. All experimental procedures are performed according to the guidelines of the Institutional Animal Ethics Committee, and the protocol is approved by the Committee for the Purpose of Control and Supervision of Experiments on Animals.
(§3) Renal fibrosis is induced via multiple injections of low-dose cisplatin. Intraperitoneal injections of cisplatin (5 mg/kg/injection; P4394, Sigma-Aldrich, St Louis, Mo.) are performed at 0, 1, and 3 weeks, for a total of 3 injections. Mice are sacrificed at 6 weeks after the first dose of cisplatin (n=6). […]

C57BL/6 mice [2] = experiment: Cisplatin-induced renal injury in mice: kidney histopathology (H&E); details: extract at 1000 mg/kg; cisplatin-stimulated mice
Description: Kidney histopathology The anterior portion of the […] from each mouse is fixed in 10% formaldehyde phosphate buffer, embedded in paraffin, cut into 5 μm sections, and then treated with an hematoxylin and eosin (H&E) stain for histological examination under the light microscopy (Nikon, ECLIPSE, TS100, Tokyo, Japan). Images are captured with a digital camera (NIS-Elements D 2.30, SP4, Build 387) at an original magnification of 400×.
as §2, §3

[3] = tested on: TNF-α, IL-1β, IL-6 and TGF-β; experiment: Bleomycin-induced pulmonary fibrosis in mice: pro-inflammatory cytokines by ELISA; details: extract 1.0 g/kg; BH, DH 50 mg/kg; after BLM challenge; p<0.001
Protocol: as §1, with “administration. […]” for “administration.”
The serum concentration of the pro-inflammatory cytokines (i.e. tumor necrosis factor-α (TNF-α), interleukin-6 (IL-6), and IL-1β) in serum were assessed with relevant enzyme-linked immunosorbent assay (ELISA) kits (Biosource International Inc., Sunnyvale, Calif., USA), based on the manufacturer's instructions.

C57BL/6 mice [4] = experiment: Cisplatin-induced renal injury in mice: serum CRE and BUN; details: extracts at 1000 mg/kg; compared to cisplatin-stimulated group, p<0.001
Protocol: Determination of biochemical parameters Serum creatinine and serum urea are assessed using colorimetric kits according to manufacturer's instructions. Kits of the former markers are purchased from (HUMAN Diagnostics Worldwide, Magdeburg, Germany) with a chemical analyzer (Roche Diagnostics, Cobas Mira Plus, Rotkreuz, Switzerland).
as §2
Renal fibrosis is induced via multiple injections of low-dose cisplatin. Intraperitoneal injections of cisplatin (5 mg/kg/injection; P4394, Sigma-Aldrich, St Louis, Mo.) are performed at 0, 1, and 3 weeks, for a total of 3 injections. Mice are sacrificed at 6 weeks after the first dose of cisplatin (n=6). To analyze the effects of samples, mice are given daily intraperitoneal injections for 7 days, starting from 4 weeks after first dose of cisplatin, and sacrificed at […] (n=6).

C=C1C(=O)O[C@H]2/C=C(\C)CC3C=C(CC/C=C(\C)CC[C@H]12)C(=O)O3 (some centres unmarked) [AR100-DS1, Ovatodiolide]
hydroxyproline (HP) content in lung tissue (ICR mice): reduced lung HP
NO, TNF-α, IL-1β, and IL-6 production in serum [1]: improved NO, TNF-α, IL-1β, and IL-6 production
necrosis and inflammatory infiltrating cells in the kidney tissue (H&E) (C57BL/6 mice [2]): significantly improved necrosis and inflammatory infiltrating cells in the kidney tissue
TNF-α, IL-1β, IL-6 and TGF-β production [3]: improved TNF-α, IL-1β, IL-6 and TGF-β production
renal protection: normalization of serum CRE and BUN (C57BL/6 mice [4]): significant renal protection effect
